This passage reports IC50 results from US10280150B2 (FORMA TM2, Inc., priority 2014, dated 2019).

SMILES strings stand for the structures.

Test [1] deals with HCT116 isogenic IDH1-R132C mutant cells. As to the kind of experiment: Cellular 2-HG assay using HCT116 mutant IDH1 cells (R132C), RapidFire mass spectrometry. Type of test: cell-based. To be noted: Homo sapiens, HCT-116; cellular 2-HG level, HCT116 IDH1-R132C cells, 24 hours; read-out: HCT116 IDH1 R132C IC50 (Range). The procedure: (§1) Example 106—Cellular 2-HG assay using HCT116 mutant IDH1 cells
(§2) HCT116 isogenic IDH1-R132H and IDH1-R132C mutant cells were cultured in growth media (McCoy's 5 A, 10% fetal bovine serum, 1× antibiotic-antimycotic solution and 0.3 mg/mL G418) in 5% CO2 in an incubator at 37° C. To prepare the assay, cells were trypsinized and resuspended in assay media (McCoy's 5 A with no L-glutamine, 10% fetal bovine serum, 1× antibiotic-antimycotic solution and 0.3 mg/mL G418). An aliquot of 10,000 cells/100 μL was transferred to each well of a clear 96-well tissue culture plate. The cells were incubated in 5% CO2 at 37° C. in an incubator overnight to allow for proper cell attachment. An aliquot of 50 μL of compound containing assay media were then added to each well and the assay plate was kept in 5% CO2 at 37° C. in an incubator for 24 hours. The media was then removed from each well and 150 μL of a methanol/water mixture (80/20 v/v) was added to each well. The plates were kept at −80° C. freezer overnight to allow for complete cell lysis. An aliquot of 125 μL of extracted supernatant was analyzed by RapidFire high-throughout-mass spectrometry (Agilent) to determine the cellular 2-HG level. The IC50 of a given compound was calculated by fitting the dose response curve of cellular 2-HG inhibition at a given concentration with the four parameter logistic equation.

The target in test [2] is IDH1-R132H recombinant protein (Homo sapiens (Human), UniProt O75874, R132H). As to the kind of experiment: IDH1-R132H enzymatic assay (inhibition of NADPH consumption, diaphorase/resazurin readout). The test is classed as biochemical. To be noted: read-out: Enzyme IDH1 R132H IC50 (Range). The procedure: (§3) Assays were performed in a 384-well black plate. An aliquot of 250 nL of compound was incubated with 10 μL of 30 nM IDH1-R132H or 10 nM IDH1-R132C recombinant protein in assay buffer (50 mM Tris pH=7.5, 150 mM NaCl, 5 mM MgCl2, 0.1% (w/v) Bovine Serum Albumin, and 0.01% Triton X-100) in each well at 25° C. for 15 minutes. After the plate was centrifuged briefly, an aliquot of 10 μL of 2 mM α-ketoglutarate and 20 μM NADPH solution prepared in assay buffer was then added to each well and the reaction was maintained at 25° C. for 45 minutes. An aliquot of 10 μL of diaphorase solution (0.15 U/mL diaphorase and 30 µM Resazurin in assay buffer) was added to each well. The plate was maintained at 25° C. for 15 minutes and then read on a plate reader with excitation and emission wavelengths at 535 nm and 590 nm, respectively. The IC50 of a given compound was calculated by fitting the dose response curve of inhibition of NADPH consumption at a given concentration with the four parameter logistic equation.
IDH1-R132H recombinant protein, sequence (O75874 whole entry R132H): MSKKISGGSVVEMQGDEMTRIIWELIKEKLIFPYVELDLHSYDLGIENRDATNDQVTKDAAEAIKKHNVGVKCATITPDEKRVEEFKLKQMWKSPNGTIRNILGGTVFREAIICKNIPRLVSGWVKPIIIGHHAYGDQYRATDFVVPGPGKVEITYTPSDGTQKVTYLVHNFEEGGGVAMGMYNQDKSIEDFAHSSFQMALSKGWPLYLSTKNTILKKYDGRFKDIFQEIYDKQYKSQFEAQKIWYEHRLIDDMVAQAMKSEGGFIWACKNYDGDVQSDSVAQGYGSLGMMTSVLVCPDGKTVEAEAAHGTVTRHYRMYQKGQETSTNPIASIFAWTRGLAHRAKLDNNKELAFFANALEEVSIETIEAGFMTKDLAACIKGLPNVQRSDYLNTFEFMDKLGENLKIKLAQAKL

The subject of test [3] is HCT116 isogenic IDH1-R132H mutant cells. The experiment in a line: Cellular 2-HG assay using HCT116 mutant IDH1 cells (R132H), RapidFire mass spectrometry. Type of test: cell-based. The following applies: Homo sapiens, HCT-116; cellular 2-HG level, HCT116 IDH1-R132H cells, 24 hours; read-out: HCT116 IDH1 R132H IC50 (Range). Here is the method: as §1, §2
The target in test [4] is IDH1-R132C recombinant protein (Homo sapiens (Human), UniProt O75874, R132C). The experiment in a line: IDH1-R132C enzymatic assay (inhibition of NADPH consumption, diaphorase/resazurin readout). Type of test: biochemical. The following applies: read-out: Enzyme IDH1 R132C IC50 (Range). The procedure: as §3
IDH1-R132C recombinant protein, sequence (O75874 whole entry R132C): as the sequence (O75874 whole entry R132H) above, with H132C counted along it

Usually IC50 stands for the point on the concentration scale where inhibition reaches its midpoint. Regarding `Cc1cscc1-c1ccnc(N[C@@H](C)c2cc3cc(Cl)ccc3[nH]c2=O)n1` [Compound I-80], the concentration for half-maximal inhibition (IC50) was 0.1 to 1 µM in test [1], less than 0.1 µM in test [2] and 0.1 to 1 µM in test [3].
Regarding `Cc1c(-c2ccnc(N[C@@H](C)c3cc4cc(Cl)ccc4[nH]c3=O)n2)cnn1C` [Compound I-74], the IC50 in test [1], in test [2] and in test [3] was 0.1 to 1 µM throughout.
Take `CC(C)(Nc1nccc(N2CCOC2=O)n1)c1cc2cc(Cl)ccc2[nH]c1=O` [Compound I-170]: the half-maximal inhibitory concentration (IC50) was in the range of 1 to 10 µM in test [1], 0.1 to 1 µM in test [2] and 0.1 to 1 µM in test [3].
For the compound `C[C@H](Nc1nccc(-c2ccnn2C2CCCCO2)n1)c1cc2cc(Cl)ccc2[nH]c1=O` (some centres unmarked) [Compound I-79], the IC50 was 1 to 10 µM in test [1], less than 0.1 µM in test [2] and 1 to 10 µM in test [3].
`CC(C)[C@H]1COC(=O)N1c1ccnc(N[C@@H](C)c2cc3cc(Cl)ccc3[nH]c2=O)n1` [Compound I-42, (S)-3-(2-(((S)-1-(6-Chloro-2-oxo-1,2-dihydroquinolin-3-yl)ethyl)amino)pyrimidin-4-yl)-4-isopropyloxazolidin-2-one]: the IC50 in test [1], in test [2] and in test [4] was less than 0.1 µM each time.
As to `C[C@H](Nc1ncc(C#N)c(C2CC2)n1)c1cc2cc(Cl)ccc2[nH]c1=O` [Compound I-40, (S)-2-((1-(6-Chloro-2-oxo-1,2-dihydroquinolin-3-yl)ethyl)amino)-4-cyclopropylpyrimidine-5-carbonitrile], the IC50 in test [1] was 0.1 to 1 µM; in test [2], less than 0.1 µM; in test [3], 1 to 10 µM.
For `CC(C)n1cncc1-c1ccnc(N[C@@H](C)c2cc3cc(Cl)ccc3n(C)c2=O)n1` [Compound I-173, (S)-6-chloro-3-(1-((4-(1-isopropyl-1H-imidazol-5-yl)pyrimidin-2-yl)amino)ethyl)-1-methylquinolin-2(1H)-one], the IC50 in test [2] and in test [4] was less than 0.1 µM throughout.
With `C[C@H](Nc1nccc(-c2coc3ccccc23)n1)c1cc2cc(Cl)ccc2[nH]c1=O` [Compound I-89], the concentration for half-maximal inhibition (IC50) in test [2] and in test [4] was 1 to 10 µM throughout.
In the case of `CC(C)N(c1ccnc(N[C@@H](C)c2cc3cc(Cl)ccc3[nH]c2=O)n1)S(=O)(=O)c1cccnc1` [Compound I-4, (S)—N-(2-((1-(6-Chloro-2-oxo-1,2-dihydroquinolin-3-yl)ethyl)amino)pyrimidin-4-yl)-N-isopropylpyridine-3-sulfonamide], the IC50 in test [2] and in test [4] was less than 0.1 µM each time.
For the compound `C[C@H](Nc1nccc(-c2cccc3c2OCC3)n1)c1cc2cc(Cl)ccc2[nH]c1=O` [Compound I-98], the 50% inhibitory concentration (IC50) in test [2] and in test [4] was greater than 10 µM in each case.
Regarding `Cc1nn(C)c(C)c1-c1ccnc(N[C@@H](C)c2cc3cc(Cl)ccc3[nH]c2=O)n1` [Compound I-84], the IC50 in test [2] is 1 to 10 µM; in test [4], greater than 10 µM.
In the case of `C[C@H](Nc1nccc(-n2nnnc2C2CC2)n1)c1cc2cc(Cl)ccc2[nH]c1=O` [Compound I-183, (S)-6-chloro-3-(1-((4-(5-cyclopropyl-1H-tetrazol-1-yl)pyrimidin-2-yl)amino)ethyl)quinolin-2(1H)-one], the values for the half-inhibitory concentration (IC50) in test [1], in test [2] and in test [4] were 0.1 to 1 µM, less than 0.1 µM and less than 0.1 µM, respectively.
For `COc1cnccc1-c1ccnc(N[C@@H](C)c2cc3cc(Cl)ccc3[nH]c2=O)n1` [Compound I-97], the 50% inhibitory concentration (IC50) in test [2] and in test [4] was 1 to 10 µM each time.
Turning to `O=C1OCCN1c1ccnc(NC2(c3cc4cc(Cl)ccc4[nH]c3=O)CC2)n1` [Compound I-168], the IC50 in test [2] lay within 0.1 to 1 µM; in test [4], 1 to 10 µM.
On to `C[C@@H](Nc1nccc(N2CCOC2=O)n1)c1cc2cc(Cl)ccc2[nH]c1=O` [Compound I-45], for which the IC50 in test [2] and in test [4] was 1 to 10 µM throughout.
On to `CC(C)[C@H]1COCCN1c1ccnc(N[C@@H](C)c2cc3cc(Cl)ccc3[nH]c2=O)n1` [Compound I-104, 6-chloro-3-((S)-1-(4-((S)-3-isopropylmorpholino)pyrimidin-2-ylamino)ethyl) quinolin-2(1H)-one], for which the IC50 in test [2] was in the range of 0.1 to 1 µM; in test [4], 1 to 10 µM.
Taken in the same sequence, the figures for `C[C@H](Nc1nccc(CS(C)(=O)=O)n1)c1cc2cc(Cl)ccc2[nH]c1=O` [Compound I-133] were 0.1 to 1 µM and 1 to 10 µM.
Taken in the same sequence, the figures for `C[C@H](Nc1nccc(NC(C)(C)C)n1)c1cc2cc(Cl)ccc2[nH]c1=O` [Compound I-7] were 0.1 to 1 µM and 1 to 10 µM.
For `COc1ccncc1-c1ccnc(N[C@@H](C)c2cc3cc(Cl)ccc3[nH]c2=O)n1` [Compound I-99] the same measures were 0.1 to 1 µM and 0.1 to 1 µM.
As to `COc1ncccc1-c1ccnc(N[C@@H](C)c2cc3cc(Cl)ccc3[nH]c2=O)n1` [Compound I-93], the IC50 in test [2] is 1 to 10 µM; in test [4] it was greater than 10 µM.
For `CC(C)CS(=O)(=O)N(c1ccnc(N[C@@H](C)c2cc3cc(Cl)ccc3[nH]c2=O)n1)C(C)C` [Compound I-5, (S)—N-(2-(1-(6-Chloro-2-oxo-1,2-dihydroquinolin-3-yl)ethylamino)pyrimidin-4-yl)-N-isopropyl-2-methylpropane-1-sulfonamide] the same measures were less than 0.1 µM and 0.1 to 1 µM.
Taken in the same sequence, the figures for `CC(C)N(c1ccnc(N[C@@H](C)c2cc3cc(Cl)ccc3[nH]c2=O)n1)S(C)(=O)=O` [Compound I-10, (S)—N-(2-(1-(6-Chloro-2-oxo-1,2-dihydroquinolin-3-yl)ethylamino)pyrimidin-4-yl)-N-isopropylmethanesulfonamide] were less than 0.1 µM and 0.1 to 1 µM.
For `CC(C)CN(c1ccnc(N[C@@H](C)c2cc3cc(Cl)ccc3[nH]c2=O)n1)S(C)(=O)=O` [Compound I-8, (S)—N-(2-(1-(6-Chloro-2-oxo-1,2-dihydroquinolin-3-yl)ethylamino)pyrimidin-4-yl)-N-isobutylmethanesulfonamide] the same measures were less than 0.1 µM and less than 0.1 µM.
In the case of `COCc1ccccc1-c1ccnc(N[C@@H](C)c2cc3cc(Cl)ccc3[nH]c2=O)n1` [Compound I-100], the 50% inhibitory concentration (IC50) in test [2] lay within 0.1 to 1 µM; in test [4], 1 to 10 µM.
For `C[C@H](Nc1nccc(N(C2CC2)S(C)(=O)=O)n1)c1cc2cc(Cl)ccc2[nH]c1=O` [Compound I-14] the same measures were 0.1 to 1 µM and 1 to 10 µM.
For `COc1nc(N[C@@H](C)c2cc3cc(Cl)ccc3n(C)c2=O)ncc1C#N` [Compound I-41, (S)-2-((1-(6-chloro-1-methyl-2-oxo-1,2-dihydroquinolin-3-yl)ethyl)amino)-4-methoxypyrimidine-5-carbonitrile] the same measures were 1 to 10 µM and 1 to 10 µM.
Take `COc1nc(NC(C)c2cc3cc(Cl)c(OCC4CC(F)(F)C4)cc3[nH]c2=O)ncc1C#N` (centres unmarked) [Compound I-172, 2-((1-(6-chloro-7-((3,3-difluorocyclobutyl)methoxy)-2-oxo-1,2-dihydroquinolin-3-yl)ethyl)amino)-4-methoxypyrimidine-5-carbonitrile]: the IC50 in test [2] was less than 0.1 µM; in test [4], 0.1 to 1 µM.
For `CC(C)CS(=O)(=O)N(C)c1ccnc(N[C@@H](C)c2cc3cc(Cl)ccc3[nH]c2=O)n1` [Compound I-15], the IC50 in test [2] and in test [4] was 0.1 to 1 µM each time.
Regarding `Cc1nc(N[C@@H](C)c2cc3cc(Cl)c(OCc4ccccn4)cc3[nH]c2=O)ncc1C#N` [Compound I-153], the IC50 in test [1], in test [2] and in test [4] was less than 0.1 µM each time.
As to `C[C@H](Nc1nccc(-c2cnn(C)c2)n1)c1cc2cc(Cl)ccc2[nH]c1=O` [Compound I-91], the IC50 lay within 0.1 to 1 µM in test [2] and 1 to 10 µM in test [4].
